This is an account of results in patent publication US12398160B2, “Cot modulators and methods of use thereof” (Gilead Sciences, Inc., priority 2019, dated 2025).

The data set in a line: In vivo dog pharmacokinetics. Conditions: for AUC0-72 h: beagle dogs N=3.
Setting [1] is: plasma level of the labelled analyte after oral dose of Compound B (9.7 mg-eq/kg), powder in capsule.

Molecules are shown by their SMILES.

Take `Cn1ccc2c([C@@H](c3cn(C45CC(C4)C5)nn3)N(C(=O)OCCCOP(=O)(O)O)c3cc(Cl)c4ncc(C#N)c(NCC(C)(C)C)c4c3)cccc2c1=O` [Compound C]: the “In vivo conversion after dosing” value (beagle dogs, Compound C solution formulation, 72 hour period) was “converted in vivo to both Compound D and Compound A in measurable amounts”. In addition, for the setting “plasma level of the labelled analyte after oral dose of Compound C (3 mg-eq/kg), 3 mg/mL solution”, the AUC0-72 h entry is given as “BLQ”. Take `Cn1ccc2c([C@@H](c3cn(C45CC(C4)C5)nn3)N(C(=O)OCO)c3cc(Cl)c4ncc(C#N)c(NCC(C)(C)C)c4c3)cccc2c1=O` [Intermediate A]: the AUC0-72 h result under setting [1] is given as “BLQ”. On the same count and under the same terms, in the case of `Cn1ccc2c([C@@H](c3cn(C45CC(C4)C5)nn3)N(C(=O)OCOP(=O)(O)O)c3cc(Cl)c4ncc(C#N)c(NCC(C)(C)C)c4c3)cccc2c1=O` [Compound B] it was “BLQ”.

As for `Cn1ccc2c([C@H](Nc3cc(Cl)c4ncc(C#N)c(NCC(C)(C)C)c4c3)c3cn(C45CC(C4)C5)nn3)cccc2c1=O` [Compound A], under “beagle dogs, powder in capsule, after dosing with Compound B versus Compound A”, the “AUC0-72 h for Compound A in plasma, dosing with Compound B compared with equivalent dose of Compound A” value is “higher”.
